According to patent US11214835B1, “Methods and compositions for diagnosis and management of neurodegerative diseases” (UNIVERSITY OF SOUTH FLORIDA, priority 2017, dated 2022):

Key:
DM adipocytes = experiment: Cell viability / toxicity in DM adipocytes; format: cell-based, human; settings: 20 nM, 24 hours
C57BL/6 mice = experiment: Intranasal administration to C57BL/6 mice: brain uptake and toxicity; format: in vivo, mouse; settings: 10 nM in 10 μl
Procedure: Brain tissue was harvested after about 48 h.
(§1) Separately, NPG567 or other compounds can be administered by intranasal delivery (APP/PS1 beginning at either 6 months of age (preventive) or 12 months of age (therapeutic); dose repeated alternate days; Tg4510 beginning at either 3 months of age (preventive) or 8 months of age (therapeutic); alternate days. See FIG. 25B for a schematic of the experimental protocol. The treatment efficacy for the two modes of delivery at timeframes as shown in FIGS. 25A and 25B and described herein. Intranasal delivery is a noninvasive method that bypasses the blood-brain barrier and delivers the drug to the brain and the spinal cord, thereby avoiding any systemic side effects. […] Brain tissue was harvested after about 48 h.

GAS5 [1] = experiment: Uptake and GAS5 levels in primary neuronal cells (NC) by qPCR; format: cell-based, mouse; settings: 10 nM
HT22 cells = experiment: Toxicity of side-chain derivatives to HT22 cells (preliminary data)
GAS5 [2] = experiment: GAS5 stabilization in HT22 cells over-expressing UPF1, SYBR Green qPCR; format: cell-based, mouse; settings: pre-treated 10 nM for 1 hour, then UPF1 transfection for 24 hours
Procedure: As the compound(s) were designed to bind to GAS5 such that it would disrupt binding to UPF1, the compound(s) ability to bind to GAS5 was examined. RNA-EMSA (REMSA) was performed as previously described. Briefly, GAS5 was cloned in TOPO vector which has the T7 promoter. In vitro transcription assay was performed with biotin-label using RiboScribe kit using T7 RNA polymerase at 37° C. for 2 h in the presence of nucleotides, RNase inhibitor, and 5× transcription buffer. 0.1 nM of transcribed, biotin-labeled GAS5 was incubated with 10 nM NPG567 in presence of 10U yeast tRNA and 10 units of RNase inhibitor in a final volume of 10 μl of RNA shift buffer for 20 min at room temperature, detected using Biotin Chromogenic Detection kit (ThermoFisher). […] Next, it was evaluated whether NPG567 could stabilize GAS5 in HT22 cells over-expressing UPF1 (from Addgene). UPF1 was transiently transfected for 24 h (UPF oe) or pre-treated with NPG567 (10 nM) for 1 hour followed by transfection of UPF1 for 24 hours. GAS5 levels were measured using SYBR Green qPCR. […]
Methods in brief: Cell culture: Immortalized clonal mouse hippocampal cell line (HT22) (obtained from Salk Institute) and cultured in DMEM+10% FBS. […] The cells are checked for viability and counted and plated into T-25 flasks in neurobasal media with B27 supplement. […]

GAS5 [3] = experiment: Hippocampal GAS5 levels after intranasal administration to C57BL/6 mice; format: in vivo, mouse; settings: 10 nM in 10 μl, about 48 h
Excerpt: as §1

Compound | cell toxicity in DM adipocytes (DM adipocytes) | toxicity to the animals (C57BL/6 mice; C57BL/6 mice) | blood-brain barrier crossing and brain uptake (C57BL/6 mice; fluorescein-labeled, 14 week C57BL/6 mice, brain harvested after about 48 h) | uptake by NC (GAS5 [1]; primary neuronal cells) | GAS5 levels in NC (GAS5 [1]; qPCR, control set as reference) | toxicity to HT22 cells (HT22 cells) | GAS5 levels with UPF1 over-expression (GAS5 [2]) | GAS5 levels in the hippocampus (GAS5 [3])
CC(C)C[C@H]1CN(C(=O)CC2CC2)CC(=O)N[C@@H](CCCCN)CN(C(=O)CCc2ccccc2)CC(=O)N[C@@H](Cc2ccccc2)CN(CC(N)=O)C(=O)CCSCc2ccc(cc2)C(=O)N[C@@H](Cc2ccccc2)CN(C(=O)CC2CC2)CC(=O)N1 [Formula G5-1397] | without causing cell toxicity | – | – | – | – | – | – | –
NCCCC[C@H]1CN(C(=O)CCc2ccccc2)CC(=O)N[C@@H](CCC(=O)O)CN(CC(N)=O)C(=O)CCSCc2ccc(cc2)C(=O)N[C@@H](CCC(=O)O)CN(C(=O)CCC(=O)O)CC(=O)N[C@@H](CCCCN)CN(C(=O)CCCN)CC(=O)N1 [NPG567] | – | not toxic to the animals | crossed the blood-brain barrier and taken up by the brain | efficiently taken up by NC | increase GAS5 | not toxic to HT22 cells | increases GAS5 levels | increased GAS5 levels in the hippocampus
